Laboratory results from ChEMBL document CHEMBL1828590 (J Med Chem, 2011).
Calls of active or inactive are those of the source. The calls are words filed in the database; no cut-off is given here.

Experiments:
[1] = Apparent oral clearance in Beagle dog at 10 mg/kg, po; type: ADME, organism-based, Canis lupus familiaris; design: dose 10 mg/kg, route oral; settings: in vivo
[2] = Time required for attaining concentration above IC50 of HDAC1 in tumor of nude BALB/c mouse xenografted with HCT116 cells at 50 mg/kg, po administered as single dose; type: ADME, organism-based, Neoplasm, HCT-116; design: dose 50 mg/kg, route oral; settings: in vivo
[3] = Apparent oral clearance in Wistar rat at 2 mg/kg, iv; type: ADME, organism-based; design: dose 2 mg/kg; settings: in vivo
Mus musculus [4] = assay: Toxicity in nude BALB/c mouse xenografted with human HCT116 cells assessed as mouse survival at 100 mg/kg, po QD for 21 days measured on day 22; type: organism-based, HCT-116; design: dose 100 mg/kg, route oral; settings: in vivo, 504 h
Mus musculus [5] = assay: Toxicity in nude BALB/c mouse xenografted with human A2780 cells assessed as maximum body weight loss at 50 mg/kg, po QD for 21 days measured on day 13; type: organism-based; design: dose 50 mg/kg, route oral; settings: in vivo, 504 h
Mus musculus [6] = assay: Toxicity in nude BALB/c mouse xenografted with human HCT116 cells assessed as body weight loss at 100 mg/kg, po QD for 21 days measured on day 19; type: organism-based, HCT-116; design: dose 100 mg/kg, route oral; settings: in vivo, 504 h
[7] = Half life in rat liver microsomes; type: ADME, Microsome
Mus musculus [8] = assay: Toxicity in nude BALB/c mouse xenografted with human A2780 cells assessed as mortality at 100 mg/kg, po QD for 21 days measured on day 9; type: organism-based; design: dose 100 mg/kg, route oral; settings: in vivo, 504 h
[9] = Terminal half life in nude BALB/c mouse at 10 mg/kg, iv; type: ADME, organism-based; design: dose 10 mg/kg, route intravenous; settings: in vivo, read-out: beta t1/2 (converted)
[10] = AUC (0 to infinity) in nude BALB/c mouse at 50 mg/kg, po; type: ADME, organism-based; design: time infinity, dose 50 mg/kg, route oral; settings: plasma
HCT-116 [11] = assay: Antitumor activity against human HCT116 cells xenografted in nude BALB/c mouse assessed as tumor growth inhibition at 100 mg/kg, po qd for 21 days; type: functional; settings: HCT-116, 504 h, read-out: TGI
Mus musculus [12] = assay: Toxicity in nude BALB/c mouse xenografted with human HCT116 cells assessed as body weight loss at 100 mg/kg, po QD for 21 days measured on day 20; type: organism-based, HCT-116; design: dose 100 mg/kg, route oral; settings: in vivo, 504 h
[13] = Solubility of the compound in 0.9% NaCl; type: physicochemical
Mus musculus [14] = assay: Toxicity in nude BALB/c mouse xenografted with human Ramos cells assessed as maximum body weight loss at 50 mg/kg, po QD for 21 days measured on day 12; type: organism-based; design: dose 50 mg/kg, route oral; settings: in vivo, 504 h
[15] = target: Stromelysin-1 (Homo sapiens) (UniProt P08254); assay: Inhibition of MMP3 at 10 uM
Chain of Stromelysin-1 (Homo sapiens) (P08254 100-477 limits assumed): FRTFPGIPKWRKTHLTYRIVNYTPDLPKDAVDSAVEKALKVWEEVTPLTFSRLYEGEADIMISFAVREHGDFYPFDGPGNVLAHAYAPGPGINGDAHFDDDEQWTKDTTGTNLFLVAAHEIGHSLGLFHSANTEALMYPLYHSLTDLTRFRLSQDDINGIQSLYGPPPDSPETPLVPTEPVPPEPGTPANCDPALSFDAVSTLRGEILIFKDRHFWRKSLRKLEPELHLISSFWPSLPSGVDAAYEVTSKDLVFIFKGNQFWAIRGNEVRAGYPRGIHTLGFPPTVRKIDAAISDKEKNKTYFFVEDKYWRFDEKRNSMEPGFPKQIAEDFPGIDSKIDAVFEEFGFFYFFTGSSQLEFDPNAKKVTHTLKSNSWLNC

[16] = AUC (0 to infinity) in Wistar rat at 2 mg/kg, iv; type: ADME, organism-based; design: time infinity, dose 2 mg/kg, route intravenous; settings: plasma
[17] = AUC (0 to infinity) in nude BALB/c mouse at 10 mg/kg, iv; type: ADME, organism-based; design: time infinity, dose 10 mg/kg, route intravenous; settings: plasma
[18] = Apparent oral clearance in nude BALB/c mouse at 50 mg/kg, po; type: ADME, organism-based; design: dose 50 mg/kg, route oral; settings: in vivo
[19] = Terminal half life in nude BALB/c mouse at 50 mg/kg, po; type: ADME, organism-based; design: dose 50 mg/kg, route oral; settings: in vivo, read-out: beta t1/2 (converted)
[20] = Cmax in nude BALB/c mouse at 50 mg/kg, po; type: ADME, organism-based; design: dose 50 mg/kg, route oral; settings: in vivo
[21] = Terminal half life in Beagle dog at 10 mg/kg, po; type: ADME, organism-based, Canis lupus familiaris; design: dose 10 mg/kg, route oral; settings: in vivo, read-out: beta t1/2 (converted)
[22] = Half life in human liver microsomes; type: ADME, Microsome
Mus musculus [23] = assay: Toxicity in nude BALB/c mouse xenografted with human MV4-11 cells assessed as maximum body weight loss at 25 mg/kg, po QD for 21 days measured on day 12; type: organism-based; design: dose 25 mg/kg, route oral; settings: in vivo, 504 h
[24] = AUC (0 to infinity) in Beagle dog at 10 mg/kg, po; type: ADME, organism-based, Canis lupus familiaris; design: time infinity, dose 10 mg/kg, route oral; settings: plasma
Ramos = assay: Antitumor activity against human Ramos cells xenografted in nude BALB/c mouse assessed as tumor growth inhibition at 50 mg/kg, po qd for 21 days measured on day 15; type: functional; settings: read-out: TGI
[25] = Volume of distribution at steady state in Wistar rat at 2 mg/kg, iv; type: ADME, organism-based; design: dose 2 mg/kg, route intravenous; settings: in vivo, read-out: Vdss
[26] = Tmax in nude BALB/c mouse at 50 mg/kg, po; type: ADME, organism-based; design: dose 50 mg/kg, route oral; settings: in vivo
Mus musculus [27] = assay: Toxicity in nude BALB/c mouse xenografted with human HCT116 cells assessed as mouse survival at 50 mg/kg, po QD for 21 days measured on day 22; type: organism-based, HCT-116; design: dose 50 mg/kg, route oral; settings: in vivo, 504 h
[28] = Solubility of the compound in water at pH 2.2; type: physicochemical
[29] = 1-Octanol-sodium phosphate buffer distribution coefficient, log D of the compound at pH 7.4; type: physicochemical; settings: 1-octanol/sodium phosphate buffer, read-out: logD
Mus musculus [30] = assay: Toxicity in nude BALB/c mouse xenografted with human HCT116 cells assessed as body weight loss at 200 mg/kg, po QD for 21 days measured on day 6; type: organism-based, HCT-116; design: dose 200 mg/kg, route oral; settings: in vivo, 504 h
HCT-116 [31] = assay: Antitumor activity against human HCT116 cells xenografted in nude BALB/c mouse assessed as tumor growth inhibition at 100 mg/kg, po qd for 21 days measured on day 15 measured on day 15; type: functional; settings: read-out: TGI
[32] = Solubility of the compound in 1% methylcellulose/0.1% Tween 80; type: physicochemical
[33] = Cmax in Beagle dog at 10 mg/kg, po; type: ADME, organism-based, Canis lupus familiaris; design: dose 10 mg/kg, route oral; settings: in vivo
PC-3 [34] = assay: Antiproliferative activity against human PC3 cells; type: functional, cell-based
[35] = Volume of distribution at steady state in nude BALB/c mouse at 10 mg/kg, iv; type: ADME, organism-based; design: dose 10 mg/kg, route intravenous; settings: in vivo, read-out: Vdss
[36] = Solubility of the compound in phosphate buffer at pH 4.5; type: physicochemical
HCT-116 [37] = assay: Antitumor activity against human HCT116 cells xenografted in nude BALB/c mouse assessed as tumor growth inhibition at 50 mg/kg, po qd for 21 days; type: functional; settings: HCT-116, 504 h, read-out: TGI
[38] = Time required for attaining concentration above IC50 of HCT116 in tumor of nude BALB/c mouse xenografted with HCT116 cells at 50 mg/kg, po administered as single dose; type: ADME, organism-based, Neoplasm, HCT-116; design: dose 50 mg/kg, route oral; settings: in vivo
[39] = Plasma protein binding in dog at 1000 ng/mL; type: ADME, cell-free, Canis lupus familiaris; settings: read-out: PPB (converted)
[40] = Plasma protein binding in mouse at 1000 ng/mL; type: ADME, cell-free; settings: read-out: PPB (converted)
[41] = Half life in mouse liver microsomes; type: ADME, Microsome; settings: liver microsomes
Mus musculus [42] = assay: Toxicity in nude BALB/c mouse xenografted with human Ramos cells assessed as mortality at 50 mg/kg, po QD for 21 days measured on day 15; type: organism-based; design: dose 50 mg/kg, route oral; settings: in vivo, 504 h
[43] = Apparent permeability from apical to basolateral side of human Caco2 cells; type: ADME, cell-based; settings: Caco-2
[44] = Cmax in Wistar rat at 10 mg/kg, po; type: ADME, organism-based; design: dose 10 mg/kg, route oral; settings: in vivo
[45] = Terminal half life in Wistar rat at 10 mg/kg, po; type: ADME, organism-based; design: dose 10 mg/kg, route oral; settings: in vivo, read-out: beta t1/2 (converted)
[46] = Apparent oral clearance in nude BALB/c mouse at 10 mg/kg, iv; type: ADME, organism-based; design: dose 10 mg/kg; settings: in vivo
[47] = Kinetic solubility of the compound at pH 7 with […] DMSO; type: physicochemical; settings: buffer, read-out: Kinetic_solubility
[48] = AUC (0 to infinity) in Beagle dog at 2 mg/kg, iv; type: ADME, organism-based, Canis lupus familiaris; design: time infinity, dose 2 mg/kg, route intravenous; settings: plasma
Mus musculus [49] = assay: Toxicity in nude BALB/c mouse xenografted with human PC3 cells assessed as maximum body weight loss at 50 mg/kg, po QD for 21 days measured on day 17; type: organism-based, PC-3; design: dose 50 mg/kg, route oral; settings: in vivo, 504 h
Mus musculus [50] = assay: Toxicity in nude BALB/c mouse xenografted with human MV4-11 cells assessed as mortality at 25 mg/kg, po QD for 21 days measured on day 21; type: organism-based; design: dose 25 mg/kg, route oral; settings: in vivo, 504 h
PC-3 [51] = assay: Antitumor activity against human PC3 cells xenografted in nude BALB/c mouse assessed as tumor growth inhibition at 50 mg/kg, po qd for 21 days measured on day 22; type: functional; settings: read-out: TGI

SMILES: CCCCc1nc2cc(/C=C/C(=O)NO)ccc2n1CCN(CC)CC.Cl.Cl
- CL/F [1]: 38.2 mL/min/kg
- Time [2]: 10 h
- CL/F [3]: 74.2 mL/min/kg
- Activity (Mus musculus [4]): Non-toxic
- Activity (Mus musculus [5]): 8.9%
- Activity (Mus musculus [6]): 14.6%
- half-life [7]: 7.8 min
- Activity (Mus musculus [8]): Non-toxic
- half-life [9]: 2.26 h
- AUC(0-inf) [10]: 4.27 µM·h
- inhibition in vivo at 100 mg/kg (HCT-116 [11]): 90%
- Activity (Mus musculus [12]): 19.9%
- solubility [13]: > 50 mg/mL
- Activity (Mus musculus [14]): 3.7%
- inhibition [15]: inactive
- AUC(0-inf) [16]: 1.15 µM·h
- AUC(0-inf) [17]: 2.52 µM·h
- CL/F [18]: 453 mL/min/kg
- half-life [19]: 2.44 h
- Cmax [20]: 6.1 µM
- half-life [21]: 4.12 h
- half-life [22]: > 1 h
- Activity (Mus musculus [23]): 12%
- AUC(0-inf) [24]: 10.5 µM·h
- inhibition in vivo at 50 mg/kg (Ramos): 75%
- Vd [25]: 1.66 L/kg
- Tmax [26]: 0.17 h
- Activity (Mus musculus [27]): Non-toxic
- solubility [28]: > 100 mg/mL
- logD [29]: 2.07
- Activity (Mus musculus [30]): 25.5%
- inhibition in vivo at 100 mg/kg (HCT-116 [31]): 97%
- solubility [32]: > 25 mg/mL
- Cmax [33]: 3.56 µM
- IC50 (PC-3 [34]): 340 nM
- Vd [35]: 3.46 L/kg
- solubility [36]: > 50 mg/mL
- inhibition in vivo at 50 mg/kg (HCT-116 [37]): 66%
- Time [38]: 5.1 h
- fraction unbound at 1000 ng/mL [39]: 0.165
- fraction unbound at 1000 ng/mL [40]: 0.061
- half-life [41]: 0.45 h
- Activity (Mus musculus [42]): Non-toxic
- Papp A→B [43]: 7.04 ×10⁻⁶ cm/s
- Cmax [44]: 0.139 µM
- half-life [45]: 2.02 h
- CL/F [46]: 153 mL/min/kg
- solubility kinetic [47]: > 200 µM
- AUC(0-inf) [48]: 3.22 µM·h
- Activity (Mus musculus [49]): 7.7%
- Activity (Mus musculus [50]): Non-toxic
- inhibition in vivo at 50 mg/kg (PC-3 [51]): 66%
